Data as given in patent publication US9532949B2, “Intraperitoneally-administered nanocarriers that release their therapeutic load based on the inflammatory environment of cancers” (STC.UNM, priority 2011, dated 2017).

Experiments:
[1] = Disruption of supported lipid bilayer on porous silica spheres by Triton X-100, release of fluorescein; conditions: 5% (w/v) Triton X-100; 3 μm porous silica spheres, egg PC bilayer, supernatant fluorescence
Protocol: FIG. 7. Disruption of lipid bilayer by Triton X-100. 3 μm silica spheres with 50 Å nominal pore size were incubated with 5 mM fluorescein then coated with a lipid bilayer made of egg phosphatidyl choline. Part of spheres was left with no treatment, and part was treated with Triton X-100 (TX 100) at a final concentration of 5% (w/v). Fluorescence of the supernatant after sedimenting the spheres was examined to check for release of fluorescein.
The platform we plan to use employs supported lipid bilayers (SLBs) on porous silica. We will test the disruption of SLBs by ozone employing the above described system to generate ozone photochemically by Trp. For detecting disruption of the SLB we tested the proof-of-concept by adding Triton X-100 (TX 100) to spheres encapsulating fluorescein within 3 microns porous silica (Macherey-Nagel, Germany) followed by forming the SLB as previously described (FIG. 7). Disruption of the SLB by TX 100 caused release of the encapsulated fluorescein (14 fold increase in fluorescence by TX100 vs. untreated spheres).

macrophages = test: Generation of ROS by activated macrophages (CellROX, flow cytometry); format: cell-based; conditions: PMA 1 μM for 30 minutes, 5 μM CellROX
Protocol: H36.12j and RAW264.7 macrophages cell line was obtained from American Type Cell Culture (ATCC, Manassas, Va.). H36.12j cells were grown in Delbecco's Modified Eagles Medium (ATTC, Manassas, Va.) supplemented with 10% (v/v) Heat-inactivated iron bovine calf serum. Propagation was at 37° C. in 5% carbon dioxide. RAW264.7 cells were grown in Delbecco's Modified Eagles Medium (ATTC, Manassas, Va.) supplemented with 10% (v/v) fetal bovine serum. Propagation was at 37° C. in 10% carbon dioxide.
Cells (0.2×10^6 in 500 uL media) were pipetted into each well of 24-well plate. Cells were stimulated with phorbol-12-myristate-13-acetate (PMA), (Sigma—Saint Louis, Mo.) at a final concentration of 1 μM for 30 minutes, followed by an incubation with 5 μM CellROX (Invitrogen) for 30 minutes to detect ROS. Fluorescence was then determined by flow cytometry.

[2] = Photochemical ozone production catalyzed by amino acids in cell-free system (indigo carmine absorbance at 610 nm); conditions: for Ozone production: 1 mM amino acid or 5 mg/mL BSA, 10 μM 6-biopterin, UVA irradiation, 30 μM indigo carmine
Protocol: FIG. 4. Ozone production catalyzed by amino acids in cell-free system in presence of 10 μM 6-biopterin and with UVA irradiation. Tubes also contained 30 μM indigo carmine which got converted by ozone to isatin sulfonic acid as detected by a decrease in absorbance at 610 nm. 1 mM of each amino acid and 5 mg/mL BSA in phosphate buffer were tested. Error bars represent standard deviation for three replicates.
FIG. 5. Both UVA and 6BP are required to generate ozone by tryptophan. 1 mM Trp was tested. Error bars represent standard deviation for three replicates.
FIG. 6. Dose response curve for generation of ozone by increasing concentrations of Trp. Tested concentrations were 0, 10, 20, 40, 80 & 160, 500, 1000 μM tryptophan. Higher concentrations 500 μM and 1 mM Trp are not shown as they gave similar results to 160 μM. Error bars represent standard deviation for three replicates.
We successfully generated ozone (a molecule with the chemical signature of ozone) in a cell-free system by employing a photochemical source i.e. by adding a photosensitizer and exposing the tube contents to UVA irradiation. Our findings are summarized in this section. Four amino acids (tryptophan, methionine, cysteine, and histidine), but not other amino acids were reported to have the same catalytic activity as antibodies needed for water oxidation to produce ozone along with increasing bactericidal activity of neutrophils by employing a photochemical source. For our preliminary studies we used amino acids as the simplest mechanism to generate ozone. The photosensitizer we used is 6-biopterin (Sigma-Aldrich, St Louis, Mo.), and the UVA irradiation (315-400 nm) was provided by an ozone-free 1000W Xenon arc lamp as a solar simulator with blocking UVB radiation by appropriate filters (Oriel Instruments, Stratford, Conn.). The output of UVA radiation was confirmed and was measured by a UV meter (Model 3D, Solar Light, Glenside, Pa.) to be 6 mW/cm^2; we exposed the samples for 4 minutes. Ozone was detected through its conversion of indigo carmine (a blue dye with absorbance maximum at 610 nm) to isatin sulfonic acid (colorless) as we monitored this conversion by measuring absorbance at 610 nm as previously described.
The platform we plan to use employs supported lipid bilayers (SLBs) on porous silica. We will test the disruption of SLBs by ozone employing the above described system to generate ozone photochemically by Trp. […] Disruption of the SLB by TX 100 caused release of the encapsulated fluorescein (14 fold increase in fluorescence by TX100 vs. untreated spheres).

Source text for OVCA cells: For all above experiments, DOX will be added directly to cells as a positive control after determining the optimal concentration of the drug to be used to cause at least 70% cytotoxicity. […] Negative controls include (1) absence of ROS either by not activating macrophages; and (2) addition of nanocarriers devoid of DOX but with generation of ROS. Data will be collected in triplicates and comparisons will be done using a non-parametric Welch's two sample t-test where any p-value below 0.05 will be considered statistically significant.
However, for the nanocarriers, 72 hr may allow internalization of the nanocarriers and release of DOX regardless of presence of ROS.

Molecule: Triton X-100 [TX 100]
- Increase in fluorescence (release of encapsulated fluorescein) vs. untreated spheres [1]: 14 fold

Molecule: CCCCCCCCCCCCCC(=O)O[C@@H]1[C@@H](C)[C@@]2(O)[C@@H](C=C(CO)C[C@]3(O)C(=O)C(C)=C[C@@H]23)[C@@H]2C(C)(C)[C@]12OC(C)=O [PMA, phorbol-12-myristate-13-acetate]
- Generation of ROS by macrophages (macrophages): ROS was generated

Molecule: N[C@@H](Cc1c[nH]c2ccccc12)C(=O)O [tryptophan]
- Conversion of singlet oxygen to ozone, dose response ([2]; 0-1000 μM tryptophan): dose-dependent manner
- Ozone production [2]: photochemically generated ozone
- Ozone production ([2]; listed as Tryptophan): highest level of ozone
- Water oxidation (ozone generation) by tryptophan alone ([2]; without 6-biopterin and UVA exposure, 1 mM Trp): not capable of water oxidation

Molecule: COc1cccc2c1C(=O)c1c(O)c3c(c(O)c1C2=O)C[C@@](O)(C(=O)CO)C[C@@H]3O[C@H]1C[C@H](N)[C@H](O)[C@H](C)O1 [DOX, doxorubicin]
- Cytotoxicity (cell death) (OVCA cells): 96%
- Cytotoxicity (OVCA cells; 1 μM DOX, 24 hr incubation): ~45%
